Measurements from the supplement of paper PMC10307832.

Legend:
Experiment in all cases: relative viability (nuclei count vs DMSO), 5 days (fraction); higher = more cells survive
Daporinad + Alpelisib = compound: O=C(/C=C/c1cccnc1)NCCCCC1CCN(C(=O)c2ccccc2)CC1 [Daporinad] + Cc1nc(NC(=O)N2CCC[C@H]2C(N)=O)sc1-c1ccnc(C(C)(C)C(F)(F)F)c1 [Alpelisib] (partner 2 µM)
Summary of the method: (§1)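 Relative viability is defined as nuclei in treated wells over nuclei in vehicle wells. Duplicate plates were run and medians reported. Lung cancer cell lines in 1536-well plates were dosed by pin tool one day after seeding, with one drug or with a fixed anchor-drug dose plus five library-drug doses (not always all listed) in √10 steps, and nuclei were counted after 5 days.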

Daporinad + Lapatinib = compound: O=C(/C=C/c1cccnc1)NCCCCC1CCN(C(=O)c2ccccc2)CC1 [Daporinad] + CS(=O)(=O)CCNCc1ccc(-c2ccc3ncnc(Nc4ccc(OCc5cccc(F)c5)c(Cl)c4)c3c2)o1 [Lapatinib] (partner 2 µM)
Summary of the method: as §1

R406 + Lapatinib = compound: COc1cc(Nc2ncc(F)c(Nc3ccc4c(n3)NC(=O)C(C)(C)O4)n2)cc(OC)c1OC [R406] + CS(=O)(=O)CCNCc1ccc(-c2ccc3ncnc(Nc4ccc(OCc5cccc(F)c5)c(Cl)c4)c3c2)o1 [Lapatinib] (partner 2 µM)
Summary of the method: as §1

R406 + Pictilisib = compound: COc1cc(Nc2ncc(F)c(Nc3ccc4c(n3)NC(=O)C(C)(C)O4)n2)cc(OC)c1OC [R406] + CS(=O)(=O)N1CCN(Cc2cc3nc(-c4cccc5[nH]ncc45)nc(N4CCOCC4)c3s2)CC1 [Pictilisib] (partner 1 µM)
Summary of the method: as §1

Cell Line	relative viability (Daporinad + Alpelisib; first compound 0.0005 µM)	relative viability (Daporinad + Alpelisib; first compound 0.001581 µM)	relative viability (Daporinad + Alpelisib; first compound 0.005 µM)	relative viability (Daporinad + Alpelisib; first compound 0.01581 µM)	relative viability (Daporinad + Lapatinib; first compound 0.0005 µM)	relative viability (Daporinad + Lapatinib; first compound 0.001581 µM)	relative viability (Daporinad + Lapatinib; first compound 0.005 µM)	relative viability (Daporinad + Lapatinib; first compound 0.01581 µM)	relative viability (R406 + Lapatinib; first compound 0.08 µM)	relative viability (R406 + Lapatinib; first compound 0.253 µM)	relative viability (R406 + Lapatinib; first compound 0.8 µM)	relative viability (R406 + Lapatinib; first compound 2.53 µM)	relative viability (R406 + Lapatinib; first compound 8 µM)	relative viability (R406 + Pictilisib; first compound 0.08 µM)	relative viability (R406 + Pictilisib; first compound 0.253 µM)	relative viability (R406 + Pictilisib; first compound 0.8 µM)	relative viability (R406 + Pictilisib; first compound 2.53 µM)	relative viability (R406 + Pictilisib; first compound 8 µM)
HCC-44	0.817	0.937	0.825	0.864	1.06	1.08	1.07	0.937	0.899	1.08	1.12	0.624	0.619	0.569	0.647	0.611	0.526	0.335
HCC-827	1.04	1.03	1.06	0.969	0.454	0.19	0.212	0.191	0.163	0.21	0.186	0.169	0.17	0.944	0.735	1.11	0.687	0.862
NCI-H2347	1.11	1.22	1.02	1.08	1.14	0.781	1.06	1.05	1.01	0.968	0.958	0.905	0.801	0.53	0.952	0.605	0.624	0.28
PC-3 [JPC-3]	1.03	1.03	1.15	1.04	0.433	0.459	0.437	0.455	0.457	0.501	0.503	0.406	0.418	0.764	0.762	0.814	0.467	0.421
NCI-H1651	1.04	0.905	0.895	0.923	0.803	1.09	0.796	0.984	0.694	0.87	0.944	0.234	0.275	0.512	0.652	0.727	0.249	0.251
HARA	0.702	0.955	0.638	0.176	0.758	1.05	0.745	0.547	0.743	0.672	0.775	0.55	0.157	0.416	0.349	0.405	0.248	0.187
NCI-H1650	–	–	–	–	0.792	0.922	0.95	0.875	0.724	0.926	0.802	0.154	0.119	0.645	0.668	0.652	0.148	0.122
NCI-H1395	0.987	1.16	1.39	1.31	0.885	1.12	0.977	1.23	0.821	1.1	0.986	0.851	0.491	0.643	0.668	0.678	0.581	0.378
NCI-H441	–	0.603	0.754	0.717	–	–	–	–	–	–	–	–	–	0.387	0.375	0.544	0.206	0.258
LU99A	0.492	0.602	0.584	0.574	0.839	1.14	0.98	1.17	0.946	0.849	1.08	–	0.482	0.368	0.296	0.357	–	0.211
NCI-H1355	0.719	0.873	1.02	0.856	0.956	1.09	0.995	0.873	0.887	0.974	1.08	0.901	0.764	0.521	0.571	0.557	0.211	0.313
HCC-78	0.296	0.368	0.285	0.425	0.749	0.705	0.854	1.18	0.673	0.919	0.888	0.649	0.354	0.233	0.219	0.259	0.173	0.185
NCI-H1563	0.956	0.923	0.723	0.914	1.1	1.07	0.844	0.862	0.886	1.06	1.06	0.506	0.574	0.678	0.656	0.726	0.594	0.492
HCC-15	0.89	0.931	1.05	0.901	0.864	0.911	0.859	0.869	0.822	1.02	0.94	–	0.687	0.702	0.896	0.827	–	0.693
EKVX	0.83	0.87	0.873	1.18	0.169	0.223	0.231	0.251	0.247	0.239	0.18	0.104	0.176	0.436	0.41	0.422	0.357	0.347
NCI-H2087	1.07	1.36	1.14	0.928	0.99	0.979	1.18	1.14	0.826	1.26	1.36	0.254	0.966	0.876	1.07	0.92	0.352	0.717
LK-2	0.995	1.24	0.719	0.549	0.877	0.967	0.546	0.324	0.856	1.03	0.843	0.472	0.321	0.462	0.637	0.427	0.462	0.304
NCI-H1437	1	1.01	1.03	0.936	0.704	0.879	0.867	0.85	0.689	1.01	1.07	0.265	0.328	0.368	0.535	0.367	0.236	0.231
COR-L23	0.891	1.01	0.691	0.183	0.969	0.993	0.92	0.403	1.02	1.09	1.49	1.05	0.47	0.755	0.926	1.14	0.681	0.233

Cell Line	relative viability (Daporinad + Alpelisib; first compound 0.0005 µM)	relative viability (Daporinad + Alpelisib; first compound 0.001581 µM)	relative viability (Daporinad + Alpelisib; first compound 0.005 µM)	relative viability (Daporinad + Alpelisib; first compound 0.01581 µM)	relative viability (Daporinad + Lapatinib; first compound 0.0005 µM)	relative viability (Daporinad + Lapatinib; first compound 0.001581 µM)	relative viability (Daporinad + Lapatinib; first compound 0.005 µM)	relative viability (Daporinad + Lapatinib; first compound 0.01581 µM)	relative viability (R406 + Lapatinib; first compound 0.08 µM)	relative viability (R406 + Lapatinib; first compound 0.253 µM)	relative viability (R406 + Lapatinib; first compound 0.8 µM)	relative viability (R406 + Lapatinib; first compound 2.53 µM)	relative viability (R406 + Lapatinib; first compound 8 µM)	relative viability (R406 + Pictilisib; first compound 0.08 µM)	relative viability (R406 + Pictilisib; first compound 0.253 µM)	relative viability (R406 + Pictilisib; first compound 0.8 µM)	relative viability (R406 + Pictilisib; first compound 2.53 µM)	relative viability (R406 + Pictilisib; first compound 8 µM)
ABC-1	1.21	1.18	0.969	0.989	1.14	0.952	1.24	0.86	0.85	1.07	1.09	0.875	0.705	1	0.817	0.72	0.393	0.45
SK-MES-1	0.841	0.894	0.947	1.03	0.464	0.484	0.51	0.471	0.416	0.477	0.5	0.449	0.295	0.34	0.325	0.333	0.234	0.195
PC-14	0.985	0.97	0.913	0.897	0.271	0.383	0.31	0.393	0.302	0.442	0.382	0.3	0.294	0.669	0.835	0.703	0.319	0.381
A549	0.764	0.804	0.879	0.572	0.973	1.05	0.938	0.607	0.882	1.04	1.1	0.545	0.215	0.519	0.694	0.6	0.265	0.0797
A-427	0.948	1.15	1.04	0.852	1.05	1.12	0.962	0.863	0.922	1.14	1.17	0.958	0.801	0.72	0.846	0.69	0.548	0.546
NCI-H1792	0.715	0.761	0.339	0.752	0.837	0.987	0.838	0.932	0.844	1.1	1.06	0.776	0.765	0.264	0.193	0.302	0.161	0.164
LCLC-97TM1	0.295	0.268	0.248	0.257	0.813	0.795	1.2	0.797	0.647	0.855	1.06	0.717	1.13	0.174	0.172	0.218	0.133	0.148
NCI-H1703	0.412	0.379	0.466	0.312	1.39	1.22	0.845	0.402	1.52	–	1.03	0.218	0.17	0.229	0.207	0.278	0.214	0.187
LCLC-103H	1.01	1.01	1.02	1.06	–	–	–	–	–	–	–	–	–	0.462	0.636	0.595	0.403	0.356
RERF-LC-KJ	0.811	0.893	0.88	0.98	0.682	0.803	0.799	0.888	0.682	0.876	1.01	0.761	0.794	0.749	0.488	0.64	0.43	0.502
BEN	0.924	0.979	1.08	1.27	0.646	0.688	0.858	1.11	0.627	0.75	0.735	0.791	0.602	0.581	0.642	0.57	0.623	0.447
NCI-H1666	1.04	1.13	1.23	0.881	0.612	0.633	0.739	0.752	0.784	0.79	0.708	0.452	0.336	0.431	0.555	0.515	0.323	0.359
LC-2-ad	0.858	0.983	0.938	0.837	0.959	1.03	0.936	0.972	0.986	0.847	1.03	0.112	0.0913	0.554	0.309	0.596	0.12	0.0919
SW 1573	0.615	0.788	0.938	0.69	1.12	0.322	1.2	0.833	1.13	1.22	1.14	1.27	0.825	0.45	0.499	0.543	0.422	0.31
ChaGo-K-1	–	–	–	–	–	–	–	–	–	–	–	–	–	0.719	0.917	0.791	0.584	0.391
COR-L 105	1.14	1.02	1.12	1.06	0.371	0.371	0.385	0.442	0.359	0.391	0.364	0.276	0.292	0.453	0.401	0.38	0.366	0.303
NCI-H1975	0.69	0.602	0.755	0.678	1.03	1	0.917	0.826	0.779	1.01	1.14	0.221	0.169	0.29	0.297	0.319	0.162	0.142
Calu-6	0.934	0.96	1.09	0.519	1.06	0.959	0.863	0.413	1.02	1.25	1.09	0.745	0.476	0.861	0.957	1.01	0.585	0.369
